According to patent publication EP3782997A1, “FUSED PYRIMIDINE COMPOUNDS AND PHARMACEUTICAL COMPOSITIONS THEREOF FOR THE TREATMENT OF FIBROTIC DISEASES” (Galapagos N.V., priority 2019, dated 2021):

Experiments:
hENPP2 = hENPP2 (Homo sapiens, UniProt Q13822); test: Human ENPP2 (hENPP2) biochemical assay using LPC as substrate; conditions: 150 µM LPC (palmitoyl 16:0), 37°C for 30 min
Summary of the method: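 Enzyme at 1 or 3 µg/mL final in Tris-HCl pH 8.5, NaCl, KCl, CaCl2, fatty-acid-free BSA; reaction started with 150 µM LPC 16:0 (as added), 30 min at 37°C. Released choline developed with choline oxidase/peroxidase/TOOS/4-aminoantipyrine plus EGTA stop, read at 555 nm after 30 min; 1/3 dilutions from 50 µM give IC50.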

C57BL/6 mice = test: Bleomycin (BLM) induced pulmonary fibrosis model; format: in vivo; conditions: both doses (10 mg/kg and 30 mg/kg, b.i.d. p.o., Day 7 to Day 21); vs. BLM/vehicle control, *p<0.05, Mann-Whitney
From the text: The murine bleomycin induced pulmonary fibrosis model is a widely used standard animal model of pulmonary fibrosis (Walters & Kleeberger 2001). Bleomycin administration results in oxidative stress and acute inflammation with the subsequent onset of pulmonary fibrosis. Epithelial cell injury with reactive hyperplasia, basement membrane damage, clusters of spindle-shaped mesenchymal cells resembling fibroblastic foci, and interstitial as well as intra-alveolar fibrosis are histological characteristics of the bleomycin model similar to those of IPF.
For the purpose of the induction of pulmonary fibrosis 8 weeks old C57BL/6 mice with an average weight of ∼25 g randomly grouped in experimental groups were used. […]
Body weight and clinical signs were monitored throughout the experiment.
The main read-outs in the model were: • Blood for PK analysis • Body weight • Lung weight • Histopathological examination of lung tissue • Ashcroft score on slides stained for collagen with Crossman's trichrome, as well as evaluation of collagen deposition using digital image analysis (CaloPix software, TRIBVN Healthcare, France) on collagen-1A1 stained slides (immunohistochemistry, IHC) (Ashcroft et al. 1988; Hübner et al. 2008; Matsuse et al. 1999). […]

Sprague-Dawley rats = test: Rat pain model (partial sciatic nerve injury, von Frey and plantar tests); format: in vivo; conditions: 10 mg/kg p.o. bid
Protocol: The neuropathic pain rat model originally established by Seltzer et al. (Seltzer et al. 1990) is used to evaluate the effect of a test compound against tactile allodynia and contingent thermal hyperalgesia caused by partial sciatic nerve injury (PSNL) induced by sciatic nerve partial ligature.
The test compounds are administered to the treatment groups on a daily basis, starting from post-surgical day 3 (D3), and continued until the end point day on D15.
Gabapentin is used as a positive control. […]
On the test days, pre-dose allodynia was evaluated prior to dosings, and the effects of the administered compounds assessed 2 hours post dosing. […]
In the manual test approach (10 g vF), a pre-calibrated 10 g von Frey hair was used to exert five repeats of filament presentations. […] The results were recorded as percentages of positive reactions within five repeats of filament presentations. […] The actual force application was monitored in real time to ensure its linearity and thus the proper performance of the test in each measurement. The peak force (g), i.e. the lowest force evoking paw withdrawal was recorded, and the absolute paw withdrawal thresholds (PWTs) calculated as medians of triplicate measurements. […]
The contingency of heat hyperalgesia due to PSNL injury was assessed on the test days 2 hours post dosing. […]

IC50 (hENPP2): 0.01 to 100 nM
SMILES: Cc1cc(C)cc(Nc2ncc3c(n2)CN([C@@H]2CCN(C(=O)c4cc5nn[nH]c5cc4F)[C@H](C)C2)C3)c1 [Cpd 115, [(2R,4R)-4-[2-(3,5-dimethylanilino)-5,7-dihydropyrrolo[3,4-d]pyrimidin-6-yl]-2-methyl-1-piperidyl]-(6-fluoro-1H-benzotriazol-5-yl)methanone]
Ashcroft score (C57BL/6 mice): significantly decrease | allodynia (Sprague-Dawley rats): statistically significant reduction | heat hyperalgesia (Sprague-Dawley rats; plantar test): statistically significant reduction
